Counter-ions that a name gives are not always drawn. Like-named read-outs stand apart in the source and are kept apart here.
What was measured:
[1] = system: HL-60 human promyelocytic leukemia; assay: In vitro inhibition rate to tumor cells (MTT), HL-60; assay type: cell-based; conditions: for inhibition at 50 µg/mL: Homo sapiens, HL-60, 50 μg/ml, read-out: inhibition rate, Results (%) HL-60; for inhibition rate, Results (%) HL-60: 50 μg/ml
[2] = system: Hela human cervical carcinoma; assay: In vitro inhibition rate to tumor cells (MTT), Hela; assay type: cell-based; conditions: Homo sapiens, HeLa, 50 μg/ml, read-out: inhibition rate, Results (%) Hela
[3] = target: T1, HIV-1 integrase (HIV-1 IN) (Human immunodeficiency virus type 1 group M subtype B, UniProt P04585); assay: Screening for the activity against HIV-1 integrase; assay type: biochemical
T1 construct: a purified HIV-1 integrase was added into each well; purchased
Procedure: Principle of the test: A synthetic oligonucleotide of 30 nt was used as the donor substrate. A synthetic oligonucleotide of 20 nt was used as the target substrate. A 96-well plate was covered by the donor substrate, and a purified HIV-1 integrase was added into each well. ELISA was performed to measure the product of the target DNA chain transfer. A biotin-labeled alkali phosphatase was used to visual the system. OD value was measured by an Enzyme-linked Detector. Add a sample into the reaction system for screening the inhibitor of the enzyme.
1. HIV-1 IN: commercially available.
2. Treatment of the samples: Before use, the sample was dissolved in water or DMSO at a suitable concentration, then serially diluted (5×), four serial dilutions per sample. The stock solutions of two samples were 100-fold diluted with DMSO, then 5-fold diluted, four serial dilutions per sample. Positive control: S-y, provided by Shanghai Organic Chemistry Institute.
3. The donor substrate and target substrate: synthesized by Shanghai Biological Engineering Company (Shanghai Shenggong).
4. Methods: The diluted sample was added into a 96-well plate covered by the donor substrate, and then added into the reaction buffer containing the genetic engineered target enzyme and biotin-target substrate, incubated in the optimal reaction conditions. A biotin-labeled alkali phosphatase was used to visual the system to determine the absorbance at 450 nm (OD450).

MDCK (dog kidney) cells = assay: Toxicity TC50 of the samples in MDCK cells (influenza screening); conditions: concentration of 50% toxicity, given as dilution of the stock solution
[4] = system: Bel-7402 human hepatic carcinoma; assay: In vitro inhibition rate to tumor cells (MTT), Bel-7402; assay type: cell-based; conditions: for inhibition at 50 µg/mL: Homo sapiens, Bel-7402, 50 μg/ml, read-out: inhibition rate, Results (%) Bel-7402; for inhibition rate, Results (%) Bel-7402: 50 μg/ml
[5] = system: U-937 human histocytic lymphoma; assay: In vitro inhibition rate to tumor cells (MTT), U-937; assay type: cell-based; conditions: for inhibition at 50 µg/mL: Homo sapiens, U-937, 50 μg/ml, read-out: inhibition rate, Results (%) U-937; for inhibition rate, Results (%) U-937: 50 μg/ml
Hepatitis B virus (HBV) = assay type: cell-based
[6] = system: LLC mouse Lewis lung carcinoma; assay: In vitro inhibition rate to tumor cells (MTT), LLC; assay type: cell-based; conditions: 50 μg/ml; for inhibition at 50 µg/mL: Mus musculus, Lewis lung carcinoma
[7] = system: A-549 human lung adenocarcinoma; assay: In vitro inhibition rate to tumor cells (MTT), A-549; assay type: cell-based; conditions: for inhibition at 50 µg/mL: Homo sapiens, A549, 50 μg/ml, read-out: inhibition rate, Results (%) A-549
[8] = system: MCF-7 human mammary adenocarcinoma; assay: In vitro inhibition rate to tumor cells (MTT), MCF-7; assay type: cell-based; conditions: Homo sapiens, MCF7, 50 μg/ml, read-out: inhibition rate, Results (%) MCF-7
[9] = target: T2, HIV-1 proteinase (HIV-1 PR) (Human immunodeficiency virus type 1 group M subtype B, UniProt P04585); assay: Screening for in vitro activity against HIV-1 proteinase; assay type: biochemical
T2 construct: HIV-1 proteinase digests the fluorescent-labeled substrate; purchased
Procedure: Principle of the test: HIV-1 proteinase digests the fluorescent-labeled substrate in an optimal reaction condition and system. The activity of the enzyme can be reflected by the fluorescent intensity in the product of the enzyme reaction. Adding a sample into the reaction system can be used for screening the inhibitor of the enzyme.
1. HIV-1 PR: commercially available, stored at −85° C.
2. Treatment of the samples: Before use, sample was dissolved in DMSO at a suitable concentration, then serially diluted (5×) with double distilled water, five serial dilutions per sample.
3. Positive control: indinavir, purchased from […].
4. Methods: The diluted sample was added into the reaction buffer containing the fluorescent-labeled substrate. Then the genetic engineered target enzyme was added, and incubated in the optimal reaction condition. The fluorescent value was measured with a FLUO star Galaxy luminoscope.

HepG2 cells = assay: Cell status of HepG2 cells treated with sample (HBV screening); assay type: cell-based; conditions: 200 μg/ml, HepG2, four days after infection
Procedure: 1.5 Screening for the agents: The HepG2 cells were counted and 1.5×10^4 cells/well were seeded into a 96-well plate. After incubation overnight in an atmosphere of CO2 at 37° C., each of the experimental samples in a given concentration was added to the cells. After incubation at 37 °C for 24 hrs, the HepG2 treated with the samples were infected with vAcGFPHBVc of 100 MOI. A negative control and a positive control were also included. Four days after infection, the growth of the cells were observed, and the HBV e antigen in the supernatant was measured with the HBV e antigen diagnostic kit.

[10] = system: SMMC-7721 human hepatic carcinoma; assay: In vitro inhibition rate to tumor cells (MTT), SMMC-7721; assay type: cell-based; conditions: for inhibition at 50 µg/mL: Homo sapiens, SMMC-7721, 50 μg/ml, read-out: inhibition rate, Results (%) SMMC-7721
[11] = target: T3, HIV-1 reverse transcriptase (Human immunodeficiency virus type 1 group M subtype B, UniProt P04585); assay: Screening for the in vitro activity against the HIV-1 reverse transcriptase; assay type: biochemical
T3 construct: purchased
Procedure: Principle of the test: The template to which the HIV-1 reverse transcriptase interacts was covered onto the enzyme-lined template. In the optimal reaction conditions and system, HIV-1 RT will put the substrate comprising Biotin-dUTP onto the reaction template. The activity of the enzyme was measured as the amount of the integrating Biotin-dUTP in the reaction by using streptavidin-labeled horseradish peroxidase. Adding the sample to the reaction system can identify inhibitor of the enzyme.
1. HIV-1 RT: commercially available.
2. Treatment of the samples: Before use, the sample was dissolved in DMSO at a suitable concentration, then serially diluted (5×) with double distilled water, five serial dilutions per sample.
4. Methods: The diluted sample was added into the reaction buffer containing Biotin-dUTP and the genetic engineered target enzyme, and incubated in the optimal reaction conditions. A streptavidin-labeled horseradish peroxidase was added to visual the system, and OD450 was measured.

## CC(C)C1CC23OC1(O)C/C(=C\Nc1ccc(O)cc1)C2CCC3C (centres unmarked) (as salt: hydrochloride) [Compound 6, Curcumol p-hydroxy aniline hydrochloride]
other
  melting point: 147.5 to 149.5 °C

## CC(C)C1CC23OC1(O)CC(=CN1CCNCC1)C2CCC3C (centres unmarked) (as salt: hydrochloride) [Compound 8, Curcumol piperazine hydrochloride]
other
  melting point: 150 to 152 °C

## CC(C)C1CC23OC1(O)C/C(=C\NC(C)(C)C)C2CCC3C (centres unmarked) (as salt: hydrochloride) [Compound 16, Curcumol t-butyl amine hydrochloride]
other
  melting point: 115 to 116 °C

## C=C1CC2(OC(=O)CCC)OC3(CC2C(C)C)C(C)CCC13 (centres unmarked) [Compound 2, Curcumol butyrate]
[1]; Table 1
  inhibition at 50 µg/mL: 12.3%
[1]; Table 2 (repeated screening)
  inhibition at 50 µg/mL: 18%
[2]; Table 1
  inhibition at 50 µg/mL: 70.6%
[2]; Table 2 (repeated screening)
  inhibition at 50 µg/mL: 75.2%
[3]
  IC50: 116 µM
MDCK (dog kidney) cells
  TC50: 1/12150 of the stock solution
[4]; Table 1
  inhibition at 50 µg/mL: 23.3%
[4]; Table 2 (repeated screening)
  inhibition at 50 µg/mL: 12.8%
[5]; Table 1
  inhibition at 50 µg/mL: 71.2%
[5]; Table 2 (repeated screening)
  inhibition at 50 µg/mL: 70.3%
Hepatitis B virus (HBV); 200 μg/ml, decrease of HBeAg relative to positive control
  (Value of the positive control - Measured Value) Value of the positive control × 100%: 68.34%
Hepatitis B virus (HBV); 200 μg/ml, supernatant four days after infection, positive control 1.917, negative 0.057
  OD450 of HBeAg: 0.607
Hepatitis B virus (HBV); primary screening, HBV e antigen, HepG2, 13 samples
  activity against HBV (in words): had the activity against HBV
[6]; Table 1
  inhibition at 50 µg/mL: 2.98%
[6]; Table 2 (repeated screening)
  inhibition at 50 µg/mL: 0.32%
[7]; Table 1
  inhibition at 50 µg/mL: 4.93%
[7]; Table 2 (repeated screening)
  inhibition at 50 µg/mL: 9.23%
[8]; Table 1
  inhibition at 50 µg/mL: 46%
[8]; Table 2 (repeated screening)
  inhibition at 50 µg/mL: 41.8%
[9]; 0.08 μg/ml, read-out: Inhibition rate
  inhibition at 0.08 µg/mL: 4.13%
[9]; 0.40 μg/ml, read-out: Inhibition rate
  inhibition at 0.4 µg/mL: 8.64%
[9]; 2.0 μg/ml, read-out: Inhibition rate
  inhibition at 2 µg/mL: 2.98%
[9]; 10 μg/ml, read-out: Inhibition rate
  inhibition at 10 µg/mL: 12.2%
[9]; IC50, five 5× serial dilutions from 50 μg/ml
  IC50: > 163 µM
[9]; read-out: Inhibition rate, 50 μg/ml
  inhibition at 50 µg/mL: 12.7%
HepG2 cells
  Cell status: Normal
[10]; Table 1
  inhibition at 50 µg/mL: 12.3%
[10]; Table 2 (repeated screening)
  inhibition at 50 µg/mL: 14.7%
[11]; 120 ug/ml
  inhibition rate of HIV-1 reverse transcriptase: 60%
[11]; IC50, initial concentration 1/150 of the stock solution
  IC50: < 392 µM

## CC(C)C1CC23OC1(O)C/C(=C\NC(C)(C)C)C2CCC3C (centres unmarked) [Compound 15, Curcumol t-butyl amine]
[1]; Table 1
  inhibition rate, Results (%) HL-60: 8.23%
[1]; Table 2 (repeated screening)
  inhibition rate, Results (%) HL-60: 2.98%
[2]; Table 1
  inhibition at 50 µg/mL: 70%
[2]; Table 2 (repeated screening)
  inhibition at 50 µg/mL: 71.4%
[4]; Table 1
  inhibition rate, Results (%) Bel-7402: 32.98%
[4]; Table 2 (repeated screening)
  inhibition rate, Results (%) Bel-7402: 31.20%
[5]; Table 1
  inhibition rate, Results (%) U-937: 57.32%
[5]; Table 2 (repeated screening)
  inhibition rate, Results (%) U-937: 50.12%
[6]; Table 1
  inhibition rate, Results (%) LLC: −11.83%
[6]; Table 2 (repeated screening)
  inhibition rate, Results (%) LLC: −10.12%
[7]; 50 μg/ml, Table 1
  inhibition rate, Results (%) A-549: 17.43%
[7]; Table 2 (repeated screening)
  inhibition at 50 µg/mL: 12.3%
[8]; Table 1
  inhibition at 50 µg/mL: 65.3%
[8]; Table 2 (repeated screening)
  inhibition at 50 µg/mL: 60.1%
other
  melting point: 79 to 80 °C
[10]; 50 μg/ml, Table 2 (repeated screening)
  inhibition rate, Results (%) SMMC-7721: −8.60%
[10]; Table 1
  inhibition at 50 µg/mL: -2.5%

— patent publication US7700584B2 (Hangzhou Minsheng Pharmaceuticals Co., Ltd., priority 2004, dated 2010)
